Test results: patent US8952054B2, “Small molecule inhibitors of MUC1 and methods of identifying the same” (Dana-Farber Cancer Institute, Inc., priority 2010, dated 2015)

Key:
hyperammonemia = conditions: oral administration, ammonium chloride-treated rats; cited from earlier work
MUC1-CD = molecular target: T1, MUC1-CD (Homo sapiens, UniProt P15941); assay: Plate-based MUC1-CD dimerization inhibition assay (primary screening); type: biochemical; conditions: library of Table 1
T1 construct: the 72 aa cytoplasmic domain (CD); His; made in house
T1 sequence (P15941 1184-1255 limits assumed): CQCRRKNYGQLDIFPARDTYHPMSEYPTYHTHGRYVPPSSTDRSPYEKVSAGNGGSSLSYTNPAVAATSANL
Protocol: FIG. 6—Schematic Illustration of Primary HTS Screening Assay for MUC1-CD Dimerization. MUC1-CD protein was coated on a 96 well plate and then incubated with Biotinylated MUC1-CD that binds to non-biotinylated MUC1-CD protein by dimer formation. Bound biotinylated MUC1-CD protein was detected by incubation with Streptavin-HRP+peroxidase substrate system.
FIGS. 11A-C—Identification of MUC1-CD dimerization inhibitors in a small molecule screen. (FIG. 11A) Schematic representation of the MUC1-C subunit with the 58 amino acid (aa) extracellular domain (ECD), the 28 aa transmembrane domain (TD) and the 72 aa cytoplasmic domain (CD; SEQ ID NO: 1). The sequence of MUC1-CD is included with highlighting of the CQC dimerization motif. (FIG. 11B) The assay for identification of MUC1-CD dimerization inhibitors is depicted with the following steps: (i) coating of MUC1-CD onto a microplate, (ii) adding soluble biotinylated MUC1-C and […] compound, and (iii) addition of streptavidin-HRP and then peroxide with conversion by HRP to a blue color. The signal is measured by EnVision and proportional to the amount of bound biotin-labeled MUC1-CD.
FIGS. 12A-D—Apigenin is an inhibitor of MUC1-CD dimerization in vitro and in cells. (FIG. 12A) Structures of apigenin and its analogue baicalein. Using the in vitro screening assay, dimerization of MUC1-CD was assessed in the presence of 100 μM apigenin or 100 μM baicalein each dissolved in 0.1% DMSO. The results (mean±SD of 3 determinations) are expressed as percentage of control dimerization in the presence of DMSO alone. (FIG. 12B) MUC1-CD dimerization was assessed in the presence of the indicated concentrations of apigenin in the in vitro screening assay. […] (FIG. 12C) Soluble MUC1-CD was incubated in the presence of 1% DMSO, 1 mM apigenin or 1 mM baicalein for 1 h at room temperature. Monomers and dimmers were assessed by electrophoresis in a non-reducing gel and immunoblotting with anti-MUC1-C. (FIG. 12D) 293 cells were transiently transfected to express an empty vector or GFP-MUC1-CD and Flag-MUC1-CD. At six hours after transfection, the cells were left untreated, and treated with 75 μM apigenin or baicalein for 3 days. Whole-cell lysates were precipitated with anti-Flag, and the precipitates were immunoblotted with the indicated antibodies.
Multi-well (96- or 384-well) plates are coated with non-biotinylated MUC1-CD, and biotinylated MUC1-CD is added to the plates to initiate MUC1-CD dimerization or oligomerization. A luminescent substrate for biotin binding is added to the plate, followed by washing. Resulting fluorescence is detected by luminescence detection at absorbance 405 nm. A complete schematic illustration of this assay is described in […]. Test compounds are added at multiple concentrations to the plates and, following incubation and washing, the plates are read for luminescent detection. The formation of MUC1-CD dimers is detected.
To develop a HTS assay for compounds that inhibit MUC1-CD dimerization, the inventors generated purified His-tagged MUC1-CD protein. They also generated a biotin-labeled His-tagged MUC1-CD protein using a standard biotinylation kit. Biotinylated and non-biotinylated proteins were purified through Nickel columns.
The inventors coated 96- or 384-well plates with non-biotinylated MUC1-CD protein and added biotinylated MUC1-CD protein to the plates to initiate MUC1-CD/MUC1-CD dimerization or oligomerization. They then added a substrate to the plate which will bind to the biotinylated protein (only at the dimer or oligomer state) and the resultant fluorescence was detected by luminescence detection at absorbance 405 nm. A complete schematic illustration of this assay is described in FIG. 6.
Individual compounds from the chemical libraries were then added at multiple concentrations (0.01 μM to 100 μM) to the plates and following incubation and washing, the plates were read by luminescence detection at […]. […]

His-MUC1-CD = molecular target: T2, His-MUC1-CD (Homo sapiens, UniProt P15941); conditions: BIAcore analysis, Leng et al., 2007; read-out: dissociation constant (Kd) of MUC1-CD dimers; cited from earlier work
T2 construct: made in house
T2 sequence (P15941 1184-1255): T1 sequence (P15941 1184-1255 limits assumed)

[1] = tested on: mitogen-activated protein kinase kinase (MEK); conditions: cited from earlier work
[2] = molecular target: T3, aryl hydrocarbon receptor (AHR) (Rattus norvegicus, UniProt P41738); conditions: rat liver cytosol, added just before TCDD; cited from earlier work
T3 construct: Addition of PD98059 to rat liver cytosol just before the addition of TCDD; from tissue; host or cells: rat liver cytosol
T3 sequence (P41738 10-853): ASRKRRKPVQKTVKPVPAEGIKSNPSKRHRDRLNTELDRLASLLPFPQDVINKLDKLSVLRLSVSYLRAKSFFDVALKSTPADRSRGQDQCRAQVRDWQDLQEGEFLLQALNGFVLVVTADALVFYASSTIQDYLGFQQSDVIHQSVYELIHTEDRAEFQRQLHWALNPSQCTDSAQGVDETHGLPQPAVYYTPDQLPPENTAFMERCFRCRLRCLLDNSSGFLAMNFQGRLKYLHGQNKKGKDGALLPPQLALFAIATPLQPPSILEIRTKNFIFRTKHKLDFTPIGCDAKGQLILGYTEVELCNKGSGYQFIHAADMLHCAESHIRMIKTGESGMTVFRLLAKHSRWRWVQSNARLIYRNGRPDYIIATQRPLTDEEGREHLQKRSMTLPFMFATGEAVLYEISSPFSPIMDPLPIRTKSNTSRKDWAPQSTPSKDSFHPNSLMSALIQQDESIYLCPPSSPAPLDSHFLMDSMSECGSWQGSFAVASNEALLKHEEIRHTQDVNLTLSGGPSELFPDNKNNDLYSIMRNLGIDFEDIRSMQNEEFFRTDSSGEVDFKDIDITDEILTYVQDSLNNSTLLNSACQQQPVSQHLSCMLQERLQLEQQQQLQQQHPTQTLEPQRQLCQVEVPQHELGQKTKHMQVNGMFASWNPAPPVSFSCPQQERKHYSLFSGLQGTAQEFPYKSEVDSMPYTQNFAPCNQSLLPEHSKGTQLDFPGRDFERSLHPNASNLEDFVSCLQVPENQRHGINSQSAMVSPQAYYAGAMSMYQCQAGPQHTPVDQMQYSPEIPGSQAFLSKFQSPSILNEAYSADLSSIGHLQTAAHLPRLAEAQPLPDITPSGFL

severe sepsis = conditions: from about 31% without; cited from earlier work
xanthine oxidase = xanthine oxidase (Homo sapiens, UniProt P47989); conditions: cited from earlier work
xanthine oxidase, sequence (P47989 whole entry, species assumed): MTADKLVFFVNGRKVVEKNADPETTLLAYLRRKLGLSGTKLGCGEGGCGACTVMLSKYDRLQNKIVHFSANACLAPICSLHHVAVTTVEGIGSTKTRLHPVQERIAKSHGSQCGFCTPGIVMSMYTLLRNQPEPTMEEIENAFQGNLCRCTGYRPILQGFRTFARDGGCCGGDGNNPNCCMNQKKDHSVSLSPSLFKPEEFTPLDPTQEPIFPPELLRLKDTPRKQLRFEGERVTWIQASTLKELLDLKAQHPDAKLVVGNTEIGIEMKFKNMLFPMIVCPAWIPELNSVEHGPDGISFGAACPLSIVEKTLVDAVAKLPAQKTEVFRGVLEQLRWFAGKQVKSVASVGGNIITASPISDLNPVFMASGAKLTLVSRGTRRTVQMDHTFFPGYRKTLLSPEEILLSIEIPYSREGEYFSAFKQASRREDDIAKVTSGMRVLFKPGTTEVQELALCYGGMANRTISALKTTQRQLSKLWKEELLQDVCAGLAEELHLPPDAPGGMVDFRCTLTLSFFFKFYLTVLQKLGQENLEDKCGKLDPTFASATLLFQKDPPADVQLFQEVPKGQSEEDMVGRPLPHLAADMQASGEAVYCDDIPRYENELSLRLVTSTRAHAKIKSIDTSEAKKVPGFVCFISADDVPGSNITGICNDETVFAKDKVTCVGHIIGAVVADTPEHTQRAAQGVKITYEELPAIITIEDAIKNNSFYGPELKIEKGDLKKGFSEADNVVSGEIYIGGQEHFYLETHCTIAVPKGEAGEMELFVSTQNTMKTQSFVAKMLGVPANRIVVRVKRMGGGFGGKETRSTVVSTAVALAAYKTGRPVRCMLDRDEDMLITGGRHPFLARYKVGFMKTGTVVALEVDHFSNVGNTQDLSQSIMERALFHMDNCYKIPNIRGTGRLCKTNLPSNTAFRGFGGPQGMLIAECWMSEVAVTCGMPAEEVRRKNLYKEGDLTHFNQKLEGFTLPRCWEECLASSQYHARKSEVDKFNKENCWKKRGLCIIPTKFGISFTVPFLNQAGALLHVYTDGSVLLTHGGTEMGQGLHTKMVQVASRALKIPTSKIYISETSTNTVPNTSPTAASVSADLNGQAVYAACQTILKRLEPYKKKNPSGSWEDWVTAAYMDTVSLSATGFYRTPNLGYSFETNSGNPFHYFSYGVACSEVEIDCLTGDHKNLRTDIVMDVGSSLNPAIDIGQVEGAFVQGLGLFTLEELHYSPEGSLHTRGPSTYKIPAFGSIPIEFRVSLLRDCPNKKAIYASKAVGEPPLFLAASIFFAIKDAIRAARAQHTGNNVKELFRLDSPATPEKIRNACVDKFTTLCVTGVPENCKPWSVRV

[3] = cited from earlier work
[4] = tested on: MUC1-expressing cancer cells; assay: Secondary screen against MUC1-expressing cancer cells in vitro; type: cell-based; conditions: legend: ZR-75-1 breast carcinoma cells, 2 days, anti-MUC1-C immunoblot
Protocol: ZR-75-1 breast carcinoma cells were treated with […] Kaempterol for 2 days. Total cell lysates were then analyzed by immunoblotting with anti-MUC1-C antibody (FIG. 17A) or with anti-Actin antibodies (FIG. 17B).
Initial screens were performed in the presence of compounds at a concentration of 100 μM.

O=c1c(O)c(-c2ccc(O)cc2O)oc2cc(O)cc(O)c12 [Morin, 3,5,7,2′,4′-pentahydroxyflavone]
ammonia, urea, lipid peroxidation (hyperammonemia): significant reduction in ammonia, urea, lipid peroxidation
initial library screen result (MUC1-CD): MUC1 dimerization inhibitory compounds

MUC1-CD: 72-amino acid MUC1 cytoplasmic domain (SEQ ID NO:1)
Kd (His-MUC1-CD): 33 nM

COc1cccc(-c2cc(=O)c3ccccc3o2)c1N [PD98059, 2-(2′-amino-3′-methoxyphenyl)-oxanaphthalen-4-one]
inhibition of MEK [1]: potent inhibitor
TCDD binding to AHR [2]: suppressed TCDD binding
initial library screen result (MUC1-CD): MUC1 dimerization inhibitory compounds

drotrecogin alfa
mortality (severe sepsis): about 25%

O=c1c(O)c(-c2ccc(O)c(O)c2)oc2cc(O)ccc12 [Fisetin]
inhibition of xanthine oxidase (xanthine oxidase): inhibit xanthine oxidase
initial library screen result (MUC1-CD): MUC1 dimerization inhibitory compounds

O=c1c(O)c(-c2ccc(O)cc2)oc2cc(O)cc(O)c12 [Kaempferol]
solubility in organic solvents ([3]; hot ethanol and diethyl ether): soluble in hot ethanol and diethyl ether
solubility in water ([3]; water): slightly soluble in water
inhibition (FIGS. 17A-B) [4]: showed inhibition
